Assay results taken from patent publication US8093430B2, “Methods of inhibiting ethylene responses in plants using cyclopropene amine compounds” (North Carolina State University, priority 2007, dated 2012).
Where two headings read alike, the source gives them in different places.

Key:
bananas [1] = test: Time of protection of bananas against ethylene; assay type: in vivo, Musa paradisiaca L
Experimental: Untreated mature green bananas (Musa paradisiaca L) from Costa Rica which were ready for market were obtained from the local Farmers Market and were kept at 14.5° C. until use. Bananas were used within 24 hours of arrival. Experiments were conducted at approximately 22-23° C. No damaged fruit were used in the experiments. Bananas were treated to an amount of compound believed to saturate the receptor sites (10 times the minimum amount for protection). The bananas were exposed for 24 hours then vented. They were kept on a laboratory bench and each day a sample was exposed to ethylene. The day the bananas were treated with ethylene and the day the bananas turned yellow and became soft were recorded. Generally, this observation occurred about 3 days after the ethylene treatment day. The treatment day the bananas first ripened was considered to be the time of protection.

banana peel = test: Protection of chlorophyll in banana peel by compound applied as salt (swab) or gas, then ethylene; assay type: in vivo, Musa paradisiaca L
Experimental: Untreated mature green bananas (Musa paradisiaca L) from Costa Rica which were ready for market were obtained from the local Farmers Market and were kept at 14.5° C. until use. Bananas were used within 24 hours of arrival. Experiments were conducted at approximately 22-23° C. No damaged fruit were used in the experiments. […] The jars were then vented and ethylene was injected and allowed to stand for a minimum of 15 hours and then allowed to stand at 23° C. until ethylene responses developed. When the effect of the respective salts of the cyclopropenes were assayed, the salt was mixed with the desired amount of water containing Tween 20 as a wetting agent and the acid. Usually 200 μl of water, 20 μl of Tween 20 and 100 μl of 0.1 M acid and the compound dissolved in ether were used. These salts were applied to the banana. The peels were swabbed to spread the mixture and increase the exposed surface area. The bananas were placed in an unsealed 3-liter jar and allowed to stand 24 hours. In the case of the carbonate salt, the compound was exposed to carbon dioxide in water long enough for the salt to form. In this case, the carbonate salt was formed by mixing the compound dissolved in water with CO2. The concentration of CO2 in water at 1 atmosphere and 25° C. is reported to be 0.0338 M (Daniels and Alberty 1955) (See Daniels, F, et al., Physical Chemistry, John Wiley and Sons New York, 200 (1955). […] (See Cotton, et al., Advanced Inorganic Chemistry John Wiley and Sons. New York, 152 (1999). At the end of 24 hours, ethylene was injected and the jars were sealed. After 15 hours exposure, the bananas were removed and observed for several days for the effect of ethylene. An untreated check banana and a similar untreated banana treated with ethylene only were included in each experiment for comparison. For gaseous phase treatment, the compound is applied to bananas by pipetting solution onto filter paper. Filter paper is used to increase surface area in a 3 L jar. The jar is sealed for 24 hours to give enough time to diffuse through plant tissue to the ethylene binding sites. 333 ul/L of ethylene gas is added to the jars. The jars are then resealed for 15 hours. This allows for maximal exposure to ethylene to measure effectiveness of the compounds. Firmness was recorded over a number of days. Disappearance of chlorophyll was determined by extracting chlorophyll from banana peels. Absorbance was measured in a spectrometer. For aqueous phase (salts) treatment, compounds were alternatively tested by mixing the solutions in acid and a detergent. The detergent, Tween 20, was used as a wetting agent. Solutions were then applied at various concentrations to the banana with a cotton swab. Bananas were then sealed in a jar and treated in the same manner as with the gas compound procedures described above. Chlorophyll was determined by the method of Arnon (Arnon, D I (1949) Copper content in isolated chloroplasts. Polyphenoloxidase in Beta vulgaris. Plant Physiology 24:1-15) or by using a reflective chlorophyll meter (Field Scout CM 1000 Spectronic Technologies Inc.). To extract chlorophyll, a measured area of peel was cut from representative areas of the peel and placed in boiling water for 3 minutes. The samples were then removed and blended with acetone. After standing overnight in the dark, they were filtered then concentrated in a hood and chlorophyll determined by the method of Arnon (1949) according to the procedures outlined by Holden (1965). Banana peel samples were cut and mixed with acetone to extract chlorophyll. Samples were made in an ether solution and absorbance measured at 663 nm.

Petunia hybridia = test: Protection of petunia flowers against ethylene; assay type: in vivo; conditions: 100 nl, gas or carbonate salt form, ethylene 24 hours, at 5 days, FIG. 8
Experimental: FIG. 8. Protection of flowers (Petunia hybridia) by N,N-dipropyl(1-cyclopropenylmethyl)amine (100 nl) as a gas or as the carbonate salt. Treatment included check (control), ethylene, gas form, salt form of N,N-dipropyl(1-cyclopropenylmethyl)amine, from left to right. All except check were subjected to ethylene for 24 hours.
In experiments to study effects of the compounds described herein on the ethylene response in flowering plants, the petunia (Petunia hybridia), a well known ethylene sensitive flower, and the dandelion (Krigia dandelion) were used in the experiments.
FIGS. 7 and 8 present the results of using 100 nl N,N-dipropyl(1-cyclopropenylmethyl)amine on dandelions and petunias, respectively. The Krigia dandelion is commonly known as a weed that can be found along roads during particular times of the year such as spring and summer. It is of interest because ethylene can cause the plant to become dormant and, as a defense mechanism, the plant can become dormant when there is drought. […] The petunia is a well-known ethylene sensitive flower.

bananas [2] = test: Minimum amount of cyclopropene as a gas required to protect bananas from ethylene; assay type: in vivo, Musa paradisiaca L
Experimental: Untreated mature green bananas (Musa paradisiaca L) from Costa Rica which were ready for market were obtained from the local Farmers Market and were kept at 14.5° C. until use. Bananas were used within 24 hours of arrival. Experiments were conducted at approximately 22-23° C. No damaged fruit were used in the experiments. […] The jars were then vented and ethylene was injected and allowed to stand for a minimum of 15 hours and then allowed to stand at 23° C. until ethylene responses developed. For gaseous phase treatment, the compound is applied to bananas by pipetting solution onto filter paper. Filter paper is used to increase surface area in a 3 L jar. The jar is sealed for 24 hours to give enough time to diffuse through plant tissue to the ethylene binding sites. 333 ul/L of ethylene gas is added to the jars. The jars are then resealed for 15 hours. This allows for maximal exposure to ethylene to measure effectiveness of the compounds. Firmness was recorded over a number of days. Disappearance of chlorophyll was determined by extracting chlorophyll from banana peels. Absorbance was measured in a spectrometer. The minimum amount of cyclopropene necessary to protect bananas from ethylene was determined after the bananas had been exposed to the compound for 24 hours. Following this time, the fruits were vented for 10 minutes and then exposed to 333 ? l^-I of ethylene gas treatment. This has been the procedure for most other studies involving cyclopropene compounds and bananas. This time was used so that a reasonable comparison could be made with previous work ([…]. et al. 1996 a; 1996b; 1999; 2001; 2003). (See […]., et al., Effect of 1-methylcyclopropene, and methylenecyclopropene on ethylene binding and ethylene action in cut carnations, Plant Growth Reg., 18, 79-86, (1996a); […]., et al., The effect of chemical structure on the antagonism by cyclopropenes of ethylene responses in banana, Plant Growth Reg., 33, 107-110 (2001); […]., et al., 1-Substituted cyclopropenes: Effective blocking agents for ethylene action in plants, Plant Growth Reg. 40, 221-228 (2003)).

## CCCN(CCC)CC1=CC1 [N,N--Dipropyl (1-Cyclopropenylmethyl)amine]
Bananas [1]
  protection time: 33 days
Bananas [1]; 24 hour exposure at 10 times the minimum amount, daily ethylene challenge
  protection time: 33 days
Banana peel; FIG. 4, gaseous phase, 10 and 15 μL, after seven days
  ethylene response of bananas after gas exposure: had already begun showing an ethylene response
Banana peel; acetic acid + 50 μl, 24 hours, ethylene (300 μl/l) 15 hours, 5 days after ethylene
  Chlorophyll (% of control): 43 % of Control
Banana peel; acetic acid + 200 μl, 24 hours, ethylene (300 μl/l) 15 hours, 5 days after ethylene
  Chlorophyll (% of control): 46 % of Control
Banana peel; applied as gas, ethylene 15 hours, readings at 5 days
  Chlorophyll (% of control): 100 % of control
Banana peel; banana peel, Table 4
  effectiveness of the carbonate salt compared with other acids: as effective as the other acids
Banana peel; carbonic + 50 μl, 24 hours, ethylene (300 μl/l) 15 hours, 5 days after ethylene
  Chlorophyll (% of control): 47 % of Control
Banana peel; carbonic acid + 200 μl, 24 hours, ethylene (300 μl/l) 15 hours, 5 days after ethylene
  Chlorophyll (% of control): 48 % of Control
Banana peel; salt with 0.1 M acetic acid buffer (pH 4.75), swab to ½ banana, 24 hours, ethylene 15 hours, readings at 5 days
  Chlorophyll (% of control): 33 % of control
Banana peel; salt with 0.1 M acetic acid, swab to ½ banana, 24 hours, ethylene 15 hours, readings at 5 days
  Chlorophyll (% of control): 31 % of control
Banana peel; salt with 0.1 M formic acid, swab to ½ banana, 24 hours, ethylene 15 hours, readings at 5 days
  Chlorophyll (% of control): 30 % of control
Banana peel; salt with phosphoric acid (pH 1.5), swab to ½ banana, 24 hours, ethylene 15 hours, readings at 5 days
  Chlorophyll (% of control): 30 % of control
Petunia hybridia
  effect on petunia flowers exposed to ethylene: appears to withstand the ethylene response
Bananas [2]; 24 hour exposure, compound as a gas
  minimum concentration required for protection of bananas: 30 nl l^−I
Bananas [2]; amount of compound as a gas that would protect bananas by a 24 hour exposure
  Minimum Concentration: 30 nl/l
